Assay results reported in patent publication US20060057669A1, “Inactive transcription factor tif-ia and uses thereof” (priority 2002, published 2006).

Tests used:
HEK293T cells = test: Quantitative fluorimetric viability assay with calcein-AM; assay type: cell-based; details: 24, 36, 48 and 60 hr after transfection; 2 μM calcein-AM
[1] = test system: pre-rRNA synthesis in NIH3T3 cells; test: Northern blot of cellular pre-rRNA after mitogenic stimulation; assay type: cell-based; details: starved NIH3T3 cells stimulated by serum, bFGF, EGF or TPA; 40 μM PD98059, 30 min
Protocol: (C) PD98059 inhibits mitogenic stimulation of Pol I transcription. NIH3T3 cells were starved in DMEM/0.1% FCS for 12 hr before stimulation by serum, 10 ng/ml bFGF, 50 ng/ml EGF or 0.1 μM TPA in the absence or presence of 40 μM PD98059 for 30 min. Cellular RNA was isolated and the level of pre-rRNA, c-jun mRNA and cytochrome C oxidase (cox) mRNA was monitored on Northern blots.
NIH3T3, HEK293T and CLL39 cells were cultured in Dulbecco's modified Eagles medium (DMEM) supplemented with 10% fetal calf serum. Cells were transfected with 5 μg of DNA per 10^6 cells using the calcium phosphate DNA coprecipitation method. Total RNA was isolated after 48 h and analyzed on Northern blots as described (Voit et al., EMBO J. 18 (1999), 1891-1899). Cellular pre-rRNA levels were monitored by hybridization to antisense RNA complementary to the first 155 nucleotides of unprocessed 45S pre-RNA. Transcripts from the rDNA reporter plasmid were monitored by hybridization to a riboprobe that is complementary to pUC sequences inserted between the rDNA promoter and terminator sequences of pMrl930-BH. […] Transcripts from the rDNA reporter plasmid were monitored by hybridization to a riboprobe that is complementary to pUC sequences inserted between the rDNA promoter and terminator sequences of pMrl930-BH. […]

Molecule | cellular growth rate by calcein-AM staining (HEK293T cells) | effect on serum- and growth factor-induced pre-rRNA synthesis [1]
TIF-IA: wild-type human transcription initiation factor TIF-IA, accession No. AJ272050 | did not affect cell viability and growth | 
COc1cccc(-c2cc(=O)c3ccccc3o2)c1N [PD98059] |  | blocked serum- and growth factor-induced stimulation of pre-rRNA synthesis
